Patent publication US10745401B2, “Condensed lactam derivative” (Sumitomo Dainippon Pharma Co., Ltd., priority 2018, dated 2020)

Assays:
[1] = molecular target: human D2 receptor (Homo sapiens (Human), UniProt P14416); experiment: Test 1: binding activity for human D2 receptor ([3H]Spiperone, CHO cell membrane fraction); details: for Ki: human D2 receptor, [3H]Spiperone; for D2 Ki/5-HT1A Ki / D2 Ki/5-HT2A Ki: selectivity ratio
Summary of the method: (§1)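 Compound displacement of [3H]ketanserin at 5-HT2A or [3H]spiperone at D2 was measured in CHO membrane fractions after 60 min at room temperature, with filtration and scintillation counting. IC50 was converted to Ki by Cheng–Prusoff using ligand concentration and Kd from saturation binding.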

[2] = molecular target: T1, human 5-HT2A receptor (Homo sapiens (Human), UniProt P28223); experiment: Test 1: binding activity for human 5-HT2A receptor ([3H]Ketanserin, CHO cell membrane fraction)
Summary of the method: as §1

[3] = molecular target: T2, human 5-HT1A receptor (Homo sapiens (Human), UniProt P08908); experiment: Test 2: agonist activity for human 5-HT1A receptor ([35S]GTPγS binding); format: biochemical; details: for EC50: [35S]GTPγS binding, concentration at which half the activity of Emax was obtained; for Emax at 10 µM: agonist activity in the presence of 10 μM of compound, relative to 100 μmol/L 5-HT
Summary of the method: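 [35S]GTPγS binding read-out: after 60 min at room temperature with test compound in GDP buffer, human 5-HT1A receptor CHO membranes were vacuum-filtered and retained radioactivity scintillation-counted. Agonist activity calculated by formula.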

[4] = molecular target: hERG channel (Homo sapiens (Human), UniProt Q12809); experiment: Test 6-1: inhibitory activity for hERG channel (auto patch clamp, Qpatch); format: cell-based; details: for hERG inhibition IC50 (nmol/L)/5-HT1A Ki (nmol/L): ratio of hERG IC50 to 5-HT1A Ki; for hERG inhibition IC50 (nmol/L)/5-HT2A Ki (nmol/L): ratio of hERG IC50 to 5-HT2A Ki; for IC50: whole cell auto patch clamp, hERG-CHO cells, read-out: hERG inhibition IC50
Summary of the method: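 Whole-cell patch clamp on an automated system using CHO cells stably expressing human hERG (IKr); 15 s pulse interval. Four increasing compound concentrations applied cumulatively; mean peak tail current from last 3 stimulations per concentration used. IC50 from inhibition versus pre-compound current, fitted by Hill equation.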

[5] = molecular target: T2, human 5-HT1A receptor; experiment: Test 1: binding activity for human 5-HT1A receptor ([3H]8-OH-DPAT, CHO cell membrane fraction)
Summary of the method: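 Membranes incubated with [3H]8-OH-DPAT and compound for 60 min at room temperature, then filtered on polyethylenimine-coated glass-fibre plates and counted by liquid scintillation. IC50 from Hill analysis; Ki = IC50/(1+S/Kd), Kd from saturation binding on the same membranes.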

[6] = molecular target: T1, human 5-HT2A receptor; experiment: Test 3: antagonist activity for human 5-HT2A receptor (aequorin luminescence, CHO-K1 cells); format: cell-based; details: CHO-K1 cells, 1 nmol/L 5-HT
Summary of the method: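 CHO-K1 cells transiently co-expressing aequorin, Gα16 and receptor; compound in DMSO added and luminescence recorded on FDSS/μCELL.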

[7] = Test 4: metabolic stability test in human hepatic microsome; format: in vitro ADME; details: 0.1 mg/mL microsome, 0.1 μmol/L compound, 37° C., 30 minutes
Summary of the method: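 LC-MS quantified remaining parent after 30 min, 37° C, in pH 7.4 25 mmol/L phosphate containing 0.1 mg/mL human hepatic microsomes, 3.2 mmol/L NADPH and 0.1 μmol/L test compound. Value given as −LN(residual ratio)/30/0.1, mL/min/mg protein.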

[8] = molecular target: P-gp (MDR1) (Homo sapiens (Human), UniProt P08183); experiment: Test 9: P-gp substrate property (NFR, MDCKII and MDR1-MDCKII cells); format: in vitro ADME; details: Net Flux Ratio, MDR1-MDCKII vs MDCKII cells
Experimental: […]
NFR (Net Flux Ratio), which is an index of P-gp substrate property, can be calculated as follows. MDCKII (Madin-Darby canine kidney strain II) cells and MDR1-MDCKII cells in which MDR1 (multidrug resistance protein 1) was overexpressed were used to measure an apparent permeability coefficient (Papp A-B) from lumen (A) to basement membrane (B) and an apparent permeability coefficient (Papp B-A) from basement membrane (B) to lumen (A) of both MDCKII cells and MDR1-MDCKII cells. NFR (Net Flux Ratio) was calculated from the ratio between Ratio (Papp B-A/Papp A-B) of an apparent permeability coefficient of MDR1-MDCKII cells and Ratio of an apparent permeability coefficient of MDCKII cells.

T1 sequence (P28223 whole entry): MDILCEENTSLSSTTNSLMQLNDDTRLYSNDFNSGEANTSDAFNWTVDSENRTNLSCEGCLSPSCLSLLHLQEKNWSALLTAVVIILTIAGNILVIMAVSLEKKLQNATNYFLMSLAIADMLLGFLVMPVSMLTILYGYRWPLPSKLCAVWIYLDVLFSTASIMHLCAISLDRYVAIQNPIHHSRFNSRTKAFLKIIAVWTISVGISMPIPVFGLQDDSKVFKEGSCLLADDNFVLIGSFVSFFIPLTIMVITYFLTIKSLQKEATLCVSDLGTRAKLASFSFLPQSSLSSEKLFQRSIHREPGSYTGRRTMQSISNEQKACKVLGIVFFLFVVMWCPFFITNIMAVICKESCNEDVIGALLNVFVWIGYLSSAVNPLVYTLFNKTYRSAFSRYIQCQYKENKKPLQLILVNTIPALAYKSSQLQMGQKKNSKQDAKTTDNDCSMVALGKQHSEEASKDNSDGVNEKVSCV
Sequence of P-gp (MDR1) (P08183 whole entry, species assumed): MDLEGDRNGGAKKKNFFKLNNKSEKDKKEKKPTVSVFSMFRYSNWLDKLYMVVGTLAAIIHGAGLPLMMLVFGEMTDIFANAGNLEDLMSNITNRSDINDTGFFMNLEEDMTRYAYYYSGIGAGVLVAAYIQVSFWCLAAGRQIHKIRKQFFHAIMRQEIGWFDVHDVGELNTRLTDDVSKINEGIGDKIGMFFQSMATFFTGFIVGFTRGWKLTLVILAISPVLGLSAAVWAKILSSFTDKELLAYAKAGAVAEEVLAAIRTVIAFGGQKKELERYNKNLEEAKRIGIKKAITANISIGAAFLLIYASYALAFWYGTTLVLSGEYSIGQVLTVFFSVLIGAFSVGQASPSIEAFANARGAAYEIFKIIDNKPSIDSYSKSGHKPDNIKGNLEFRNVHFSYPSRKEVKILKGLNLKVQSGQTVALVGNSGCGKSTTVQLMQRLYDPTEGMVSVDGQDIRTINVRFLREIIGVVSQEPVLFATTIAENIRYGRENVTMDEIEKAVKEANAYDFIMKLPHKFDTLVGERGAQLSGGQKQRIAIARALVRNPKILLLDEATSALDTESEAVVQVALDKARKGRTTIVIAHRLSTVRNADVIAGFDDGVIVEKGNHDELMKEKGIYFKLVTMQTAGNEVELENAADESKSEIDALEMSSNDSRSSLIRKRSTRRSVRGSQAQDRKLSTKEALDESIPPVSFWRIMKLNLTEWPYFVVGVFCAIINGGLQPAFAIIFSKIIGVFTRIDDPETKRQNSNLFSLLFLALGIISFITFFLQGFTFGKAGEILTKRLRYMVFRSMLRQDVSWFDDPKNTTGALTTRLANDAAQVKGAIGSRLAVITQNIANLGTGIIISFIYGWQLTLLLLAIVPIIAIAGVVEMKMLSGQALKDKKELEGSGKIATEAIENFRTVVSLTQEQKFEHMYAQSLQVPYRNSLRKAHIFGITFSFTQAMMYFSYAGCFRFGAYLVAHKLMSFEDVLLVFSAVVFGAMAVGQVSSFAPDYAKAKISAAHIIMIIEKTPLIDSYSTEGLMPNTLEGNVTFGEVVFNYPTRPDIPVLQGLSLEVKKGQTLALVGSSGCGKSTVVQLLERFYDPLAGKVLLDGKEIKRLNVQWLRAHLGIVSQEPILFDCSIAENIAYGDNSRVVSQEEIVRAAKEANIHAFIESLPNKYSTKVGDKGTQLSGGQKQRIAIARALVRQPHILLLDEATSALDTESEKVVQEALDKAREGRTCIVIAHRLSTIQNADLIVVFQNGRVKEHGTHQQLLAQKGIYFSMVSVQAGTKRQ
T2 sequence (P08908 whole entry): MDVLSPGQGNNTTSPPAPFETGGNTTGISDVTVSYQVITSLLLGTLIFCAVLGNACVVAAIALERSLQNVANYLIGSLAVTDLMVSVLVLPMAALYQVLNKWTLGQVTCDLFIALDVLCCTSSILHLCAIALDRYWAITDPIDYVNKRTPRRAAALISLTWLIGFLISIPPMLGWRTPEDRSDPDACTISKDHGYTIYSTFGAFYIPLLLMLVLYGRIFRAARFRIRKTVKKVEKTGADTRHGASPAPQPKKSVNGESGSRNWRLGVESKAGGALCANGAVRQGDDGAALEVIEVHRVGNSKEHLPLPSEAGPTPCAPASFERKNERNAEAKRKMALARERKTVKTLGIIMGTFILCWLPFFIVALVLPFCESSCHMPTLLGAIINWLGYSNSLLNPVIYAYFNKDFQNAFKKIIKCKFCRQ
Sequence of hERG channel (Q12809 whole entry): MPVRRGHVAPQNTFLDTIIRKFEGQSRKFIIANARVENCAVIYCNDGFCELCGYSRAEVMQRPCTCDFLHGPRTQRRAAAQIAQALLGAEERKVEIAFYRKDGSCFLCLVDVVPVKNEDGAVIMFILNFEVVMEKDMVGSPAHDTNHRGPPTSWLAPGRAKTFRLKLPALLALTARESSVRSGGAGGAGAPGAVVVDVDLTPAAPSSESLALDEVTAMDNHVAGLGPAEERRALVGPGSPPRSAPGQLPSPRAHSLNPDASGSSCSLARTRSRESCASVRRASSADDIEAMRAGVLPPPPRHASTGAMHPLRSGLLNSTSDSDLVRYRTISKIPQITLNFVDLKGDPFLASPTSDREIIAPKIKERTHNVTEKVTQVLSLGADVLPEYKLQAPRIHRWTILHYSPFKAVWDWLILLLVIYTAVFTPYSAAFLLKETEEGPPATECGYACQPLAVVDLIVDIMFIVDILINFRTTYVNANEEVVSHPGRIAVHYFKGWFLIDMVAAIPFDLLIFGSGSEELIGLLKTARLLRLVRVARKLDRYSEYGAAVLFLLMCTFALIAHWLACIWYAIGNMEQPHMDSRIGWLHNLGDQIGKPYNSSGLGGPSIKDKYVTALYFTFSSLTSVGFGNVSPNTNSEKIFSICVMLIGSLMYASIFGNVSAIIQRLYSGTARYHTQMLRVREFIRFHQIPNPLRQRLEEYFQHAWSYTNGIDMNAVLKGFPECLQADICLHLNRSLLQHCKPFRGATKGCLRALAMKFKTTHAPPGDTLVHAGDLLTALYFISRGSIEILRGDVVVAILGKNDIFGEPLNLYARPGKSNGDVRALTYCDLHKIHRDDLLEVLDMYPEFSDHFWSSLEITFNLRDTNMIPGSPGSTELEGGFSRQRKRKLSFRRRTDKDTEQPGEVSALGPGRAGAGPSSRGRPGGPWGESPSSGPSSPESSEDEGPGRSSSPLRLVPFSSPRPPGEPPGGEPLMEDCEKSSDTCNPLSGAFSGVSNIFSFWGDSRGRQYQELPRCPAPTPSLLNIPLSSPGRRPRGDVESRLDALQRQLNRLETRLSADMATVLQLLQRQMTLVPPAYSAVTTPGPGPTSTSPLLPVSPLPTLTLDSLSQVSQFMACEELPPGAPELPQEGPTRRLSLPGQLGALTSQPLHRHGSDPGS
Sequence of human D2 receptor (P14416 whole entry): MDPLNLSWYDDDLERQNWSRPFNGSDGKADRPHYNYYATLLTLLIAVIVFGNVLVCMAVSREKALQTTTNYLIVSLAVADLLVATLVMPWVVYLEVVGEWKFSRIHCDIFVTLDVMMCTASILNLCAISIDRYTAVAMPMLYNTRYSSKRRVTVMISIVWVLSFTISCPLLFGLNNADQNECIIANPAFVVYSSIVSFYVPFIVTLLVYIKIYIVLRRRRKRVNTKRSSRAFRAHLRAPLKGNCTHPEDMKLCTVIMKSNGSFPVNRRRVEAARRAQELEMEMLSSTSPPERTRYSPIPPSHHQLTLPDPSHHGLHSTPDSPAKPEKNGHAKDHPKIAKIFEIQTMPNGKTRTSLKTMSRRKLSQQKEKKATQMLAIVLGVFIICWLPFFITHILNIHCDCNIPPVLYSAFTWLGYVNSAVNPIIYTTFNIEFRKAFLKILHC

IC50 [6] | SMILES | Ki [1] | D2 Ki/5-HT1A Ki [1] | D2 Ki/5-HT2A Ki [1] | Ki [2] | EC50 [3] | Emax at 10 µM [3] | hERG inhibition IC50 (nmol/L)/5-HT1A Ki (nmol/L) [4] | hERG inhibition IC50 (nmol/L)/5-HT2A Ki (nmol/L) [4] | IC50 [4] | Ki [5] | IC50 ([6]; aequorin luminescence) | Metabolic stability in human hepatic microsome [7] | NFR [8]
– | Cn1ccc2c1CCCN(CCN1CCC(c3noc4ccccc34)C1)C2=O (stereo not drawn) [Example 175] | 3480 nM | 195.2 | 251.4 | 13.8 nM | 667 nM | 36% | 197 | 253 | 3500 nM | 17.8 nM | 307 nM | 0.125 mL/min/mg protein | –
– | O=C1c2nc(Cl)ccc2CCN1CCN1CCC(c2noc3ccccc23)CC1 [Example 146] | 772 nM | 255.8 | 72.4 | 10.7 nM | 6.07 nM | 55% | 99 | 28 | 300 nM | 3.02 nM | 199 nM | <0.05 mL/min/mg protein | 2.3
20 nM | Cn1ncc2c1C(=O)N(CCN1CCC(c3noc4ccccc34)CC1)CC2 [Example 96, 6-{2-[4-(1,2-Benzoisoxazol-3-yl)piperidin-1-yl]ethyl}-1-methyl-1,4,5,6-tetrahydro-7H-pyrazolo[3,4-c]pyridin-7-one] | 103 nM | 9 | 14 | 7.25 nM | 65.5 nM | 33% | 97 | 159 | 1200 nM | 11.8 nM | – | 0.019 mL/min/mg protein | –
9 nM | Cn1ncc2c1C(=O)N(CCN1CCN(c3nsc4ccccc34)CC1)CC2 [Example 59] | 125 nM | 63 | 278 | 0.45 nM | 8 nM | 61% | – | – | – | 1.99 nM | – | 0.173 mL/min/mg protein | 1.1
– | Cc1cncc2c1CCN(CCN1CCN(c3noc4ccccc34)CC1)C2=O [Example 137] | 1080 nM | 5.8 | 96.4 | 11.2 nM | 4660 nM | 19% | 41 | 686 | 7700 nM | 186 nM | 2.4 nM | <0.05 mL/min/mg protein | –
– | O=c1c2cnccc2ccn1CCN1CCN(c2noc3ccccc23)CC1 [Example 116] | > 10000 nM | – | – | 26 nM | 882 nM | 60% | – | – | 5300 nM | 128 nM | 49.7 nM | 0.1 mL/min/mg protein | –
– | CCc1ccc2c(n1)C(=O)N(CCN1CCC(c3noc4ccccc34)CC1)CC2 [Example 185] | 1170 nM | 358.6 | 41.4 | 28.3 nM | 95.3 nM | 52% | 214 | 25 | 700 nM | 3.26 nM | 68.7 nM | <0.05 mL/min/mg protein | 2.4
– | Cn1ncc2c1CCN(CCN1CCN(c3noc4ccccc34)CC1)C2=O [Example 131] | > 10000 nM | – | – | 12 nM | 405 nM | 48% | – | – | > 3000 nM | 279 nM | 9.53 nM | <0.05 mL/min/mg protein | –
– | O=C1c2ncoc2CCN1CCN1CCC(c2noc3ccccc23)CC1 [Example 190, 5-{2-[4-(1,2-Benzoisoxazol-3-yl)piperidin-1-yl]ethyl}-6,7-dihydro[1,3]oxazolo[4,5-c]pyridin-4(5H)-one] | 2460 nM | 49.3 | 47.9 | 51.4 nM | 7210 nM | 11% | 32 | 31 | 1600 nM | 50 nM | 237 nM | <0.05 mL/min/mg protein | –
– | Cc1nc2c(o1)C(=O)N(CCN1CCC(c3noc4ccccc34)CC1)CCC2 [Example 154] | 718 nM | 35.6 | 54.9 | 13.1 nM | 45.1 nM | 58% | 35 | 54 | 700 nM | 20.2 nM | 316 nM | <0.05 mL/min/mg protein | –
13 nM | Cn1cnc2c1CCN(CCN1CCN(c3nsc4ccccc34)CC1)C2=O [Example 54] | – | – | – | – | 38.4 nM | 55% | >3637 | >1538 | > 10000 nM | – | – | <0.01 mL/min/mg protein | 6.6
74 nM | Cc1nc2c(o1)C(=O)N(CCN1CCC(c3noc4ccccc34)CC1)CC2 [Example 35, 5-{2-[4-(1,2-Benzoisoxazol-3-yl)piperidin-1-yl]ethyl}-2-methyl-6,7-dihydro[1,3]oxazolo[5,4-c]pyridin-4(5H)-one] | 1290 nM | 391 | 139 | 9.3 nM | 72 nM | 68% | 453 | 161 | 1500 nM | 3.3 nM | – | <0.01 mL/min/mg protein | –
– | Cc1nc2c(o1)CCCN(CCN1CCC(c3noc4ccccc34)CC1)C2=O [Example 157] | 641 nM | 302.1 | 44.2 | 14.5 nM | 52.7 nM | 47% | 754 | 110 | 1600 nM | 2.12 nM | 115 nM | <0.05 mL/min/mg protein | –

SMILES | IC50 [6] | Ki [1] | D2 Ki/5-HT1A Ki [1] | D2 Ki/5-HT2A Ki [1] | Ki [2] | EC50 [3] | Emax at 10 µM [3] | hERG inhibition IC50 (nmol/L)/5-HT1A Ki (nmol/L) [4] | hERG inhibition IC50 (nmol/L)/5-HT2A Ki (nmol/L) [4] | IC50 [4] | Ki [5] | IC50 ([6]; aequorin luminescence) | Metabolic stability in human hepatic microsome [7] | NFR [8]
O=C1c2cnc(OC3COC3)cc2CCN1CCN1CCN(c2nsc3ccccc23)CC1 [Example 111, 2-{2-[4-(1,2-Benzoisothiazol-3-yl)piperazin-1-yl]ethyl}-6-[(oxetan-3-yl)oxy]-3,4-dihydro-2,7-naphthyridin-1(2H)-one] | 17 nM | 1010 nM | 1105 | 530 | 1.9 nM | 4.58 nM | 51% | 2052 | 984 | 1900 nM | 0.91 nM | – | 0.254 mL/min/mg protein | –
